Data taken from the NIST ThermoML archive (doi:10.1021/je400830w).
Numbers after ± are expanded uncertainties.

Tests used:
[1] = wn = mass fraction of the nth substance listed; details: 100 kPa, Liquid; for mass density: Vibrating tube method
[2] = refractive index (Na D-line) (dimensionless); wn = mass fraction of the nth substance listed; details: 100 kPa, Liquid, Standard Abbe refractometry

O=C([O-])[C@@H]1CCCN1.[Na+] [sodium L-prolinate] + O
Details	mass density, [1] [kg/m3]	refractive index, [2]	viscosity, [1] [mPa·s]
298.15 K, w1 = 0.05	1015.28 ± 0.79	1.34005 ± 0.00048	1.16 ± 0.025
298.15 K, w1 = 0.1	1033.9 ± 0.81	1.34767 ± 0.00049	1.456 ± 0.03
298.15 K, w1 = 0.2	1071.61 ± 0.85	1.36337 ± 0.0005	2.292 ± 0.045
298.15 K, w1 = 0.3	1109.81 ± 0.91	1.37937 ± 0.00052	3.787 ± 0.072
298.15 K, w1 = 0.4	1148.69 ± 0.98	1.39604 ± 0.00053	5.56 ± 0.1
303.15 K, w1 = 0.05	1013.73 ± 0.79	1.33942 ± 0.00048	1.02 ± 0.023
303.15 K, w1 = 0.1	1032.18 ± 0.8	1.34706 ± 0.00049	1.267 ± 0.027
303.15 K, w1 = 0.2	1069.51 ± 0.84	1.36278 ± 0.0005	1.967 ± 0.039
303.15 K, w1 = 0.3	1106.73 ± 0.9	1.37869 ± 0.00052	3.327 ± 0.063
303.15 K, w1 = 0.4	1145.79 ± 0.99	1.39498 ± 0.00053	4.801 ± 0.087
308.15 K, w1 = 0.05	1011.98 ± 0.78	1.33879 ± 0.00048	0.9028 ± 0.021
308.15 K, w1 = 0.1	1030.28 ± 0.8	1.34633 ± 0.00049	1.114 ± 0.025
308.15 K, w1 = 0.2	1067.29 ± 0.83	1.36201 ± 0.0005	1.702 ± 0.035
308.15 K, w1 = 0.3	1104.08 ± 0.9	1.37768 ± 0.00052	2.923 ± 0.055
308.15 K, w1 = 0.4	1142.83 ± 0.98	1.39387 ± 0.00053	4.21 ± 0.076
313.15 K, w1 = 0.05	1010.05 ± 0.78	1.33802 ± 0.00048	0.8062 ± 0.02
313.15 K, w1 = 0.1	1028.22 ± 0.79	1.3456 ± 0.00049	0.984 ± 0.023
313.15 K, w1 = 0.2	1064.94 ± 0.83	1.36125 ± 0.0005	1.482 ± 0.031
313.15 K, w1 = 0.3	1101.95 ± 0.89	1.37678 ± 0.00051	2.509 ± 0.047
313.15 K, w1 = 0.4	1139.8 ± 0.96	1.39268 ± 0.00053	3.53 ± 0.064
318.15 K, w1 = 0.05	1007.96 ± 0.77	1.33724 ± 0.00049	0.7245 ± 0.019
318.15 K, w1 = 0.1	1026.01 ± 0.78	1.34502 ± 0.00049	0.8784 ± 0.021
318.15 K, w1 = 0.2	1062.47 ± 0.82	1.36042 ± 0.0005	1.309 ± 0.028
318.15 K, w1 = 0.3	1099.31 ± 0.88	1.37586 ± 0.00051	2.193 ± 0.041
318.15 K, w1 = 0.4	1136.71 ± 0.95	1.39154 ± 0.00052	2.997 ± 0.054
323.15 K, w1 = 0.05	1005.72 ± 0.77	1.33642 ± 0.00049	0.6556 ± 0.018
323.15 K, w1 = 0.1	1023.66 ± 0.78	1.34433 ± 0.00049	0.7874 ± 0.02
323.15 K, w1 = 0.2	1059.89 ± 0.82	1.35984 ± 0.0005	1.164 ± 0.026
323.15 K, w1 = 0.3	1096.7 ± 0.88	1.37526 ± 0.00051	1.94 ± 0.036
323.15 K, w1 = 0.4	1133.56 ± 0.94	1.39048 ± 0.00052	2.581 ± 0.046
328.15 K, w1 = 0.05	1003.32 ± 0.76	1.33569 ± 0.00049	0.5983 ± 0.017
328.15 K, w1 = 0.1	1021.18 ± 0.78	1.34373 ± 0.00049	0.7118 ± 0.019
328.15 K, w1 = 0.2	1057.21 ± 0.81	1.35931 ± 0.0005	1.038 ± 0.023
328.15 K, w1 = 0.3	1092.78 ± 0.87	1.37439 ± 0.0005	1.69 ± 0.032
328.15 K, w1 = 0.4	1130.34 ± 0.95	1.38912 ± 0.00051	2.241 ± 0.04
333.15 K, w1 = 0.05	1000.79 ± 0.76	1.33497 ± 0.00049	0.5454 ± 0.017
333.15 K, w1 = 0.1	1018.58 ± 0.77	1.34306 ± 0.00049	0.6471 ± 0.018
333.15 K, w1 = 0.2	1054.42 ± 0.81	1.35882 ± 0.0005	0.9221 ± 0.022
333.15 K, w1 = 0.3	1090.33 ± 0.86	1.37364 ± 0.0005	1.519 ± 0.029
333.15 K, w1 = 0.4	1127.09 ± 0.93	1.38795 ± 0.00051	1.96 ± 0.035
338.15 K, w1 = 0.05	998.13 ± 0.76	1.33424 ± 0.0005	0.5008 ± 0.016
338.15 K, w1 = 0.1	1015.87 ± 0.77	1.34256 ± 0.0005	0.593 ± 0.017
338.15 K, w1 = 0.2	1051.56 ± 0.81	1.35866 ± 0.0005	0.8345 ± 0.021
338.15 K, w1 = 0.3	1088.2 ± 0.86	1.37322 ± 0.00049	1.361 ± 0.027
338.15 K, w1 = 0.4	1123.8 ± 0.91	1.38677 ± 0.0005	1.728 ± 0.032
343.15 K, w1 = 0.05	995.35 ± 0.75	1.33349 ± 0.00051	0.4617 ± 0.016
343.15 K, w1 = 0.1	1013.04 ± 0.77	1.34213 ± 0.0005	0.5426 ± 0.017
343.15 K, w1 = 0.2	1048.61 ± 0.81	1.35842 ± 0.0005	0.7524 ± 0.019
343.15 K, w1 = 0.3	1085.34 ± 0.85	1.37279 ± 0.00049	1.203 ± 0.025
343.15 K, w1 = 0.4	1120.46 ± 0.9	1.38566 ± 0.00049	1.536 ± 0.029
